In ChEMBL document CHEMBL3232845 (Bioorg Med Chem Lett, 2014):

How the values were obtained:
[1] = Clearance in mouse at 2.5 mg/kg, iv; format: ADME, organism-based; design: dose 2.5 mg/kg, route intravenous; conditions: in vivo
[2] = target: Ephrin type-A receptor 5 (Homo sapiens) (UniProt P54756); test: Inhibition of human EphA5 assessed as enzyme activity at 1 uM relative to control; design: scale not given: the % may be the effect or the level left
[3] = target: Calcium/calmodulin-dependent protein kinase type 1D (Homo sapiens) (UniProt Q8IU85); test: Inhibition of human CAMK1d assessed as enzyme activity at 1 uM relative to control; design: scale not given: the % may be the effect or the level left
[4] = target: Muscle, skeletal receptor tyrosine-protein kinase (Homo sapiens) (UniProt O15146); test: Inhibition of human MuSK assessed as enzyme activity at 1 uM relative to control; design: scale not given: the % may be the effect or the level left
[5] = target: Serine/threonine-protein kinase MRCK alpha (Homo sapiens) (UniProt Q5VT25); test: Inhibition of human MRCKalpha assessed as enzyme activity at 1 uM relative to control; design: scale not given: the % may be the effect or the level left
[6] = target: RAC-beta serine/threonine-protein kinase (Homo sapiens) (UniProt P31751); test: Inhibition of human AKT2 assessed as enzyme activity at 1 uM relative to control; design: scale not given: the % may be the effect or the level left
[7] = target: Tyrosine-protein kinase Tec (Homo sapiens) (UniProt P42680); test: Inhibition of human activated TEC assessed as enzyme activity at 1 uM relative to control; design: scale not given: the % may be the effect or the level left
[8] = target: CDK6/cyclin D3 (Homo sapiens) (UniProt P30281+Q00534); test: Inhibition of human CDK6/cyclinD3 assessed as enzyme activity at 1 uM relative to control; format: protein-complex assay; design: scale not given: the % may be the effect or the level left
[9] = target: Insulin receptor (Homo sapiens) (UniProt P06213); test: Inhibition of human IR assessed as enzyme activity at 1 uM relative to control; design: scale not given: the % may be the effect or the level left
[10] = target: Mitogen-activated protein kinase 12 (Homo sapiens) (UniProt P53778); test: Inhibition of human p38gamma assessed as enzyme activity at 1 uM relative to control; design: scale not given: the % may be the effect or the level left
[11] = target: Cyclin-dependent kinase 5/CDK5 activator 1 (Homo sapiens) (UniProt Q00535+Q15078); test: Inhibition of human CDK5/p25 assessed as enzyme activity at 1 uM relative to control; format: protein-complex assay; design: scale not given: the % may be the effect or the level left
[12] = target: Fibroblast growth factor receptor 1 (Homo sapiens) (UniProt P11362); test: Inhibition of human FGFR1 assessed as enzyme activity at 1 uM relative to control; design: scale not given: the % may be the effect or the level left
[13] = target: Dual specificity mitogen-activated protein kinase kinase 7 (Homo sapiens) (UniProt O14733); test: Inhibition of human MKK7 assessed as enzyme activity at 1 uM relative to control; design: scale not given: the % may be the effect or the level left
[14] = target: Interleukin-1 receptor-associated kinase 1 (Homo sapiens) (UniProt P51617); test: Inhibition of human IRAK1 assessed as enzyme activity at 1 uM relative to control; design: scale not given: the % may be the effect or the level left
[15] = target: Tyrosine-protein kinase receptor UFO (Homo sapiens) (UniProt P30530); test: Inhibition of human Axl assessed as enzyme activity at 1 uM relative to control; design: scale not given: the % may be the effect or the level left
[16] = target: Calcium/calmodulin-dependent protein kinase type 1 (Homo sapiens) (UniProt Q14012); test: Inhibition of human CAMK1 assessed as enzyme activity at 1 uM relative to control; design: scale not given: the % may be the effect or the level left
[17] = target: Rho-associated protein kinase 2 (Homo sapiens) (UniProt O75116); test: Inhibition of human ROCK-2 assessed as enzyme activity at 1 uM relative to control; design: scale not given: the % may be the effect or the level left
[18] = target: Dual specificity tyrosine-phosphorylation-regulated kinase 2 (Homo sapiens) (UniProt Q92630); test: Inhibition of human DYRK2 assessed as enzyme activity at 1 uM relative to control; design: scale not given: the % may be the effect or the level left
[19] = target: cGMP-dependent protein kinase 1 (Homo sapiens) (UniProt Q13976); test: Inhibition of human PRKG1alpha assessed as enzyme activity at 1 uM relative to control; design: scale not given: the % may be the effect or the level left
[20] = target: Tyrosine-protein kinase receptor TYRO3 (Homo sapiens) (UniProt Q06418); test: Inhibition of human Rse assessed as enzyme activity at 1 uM relative to control; design: scale not given: the % may be the effect or the level left
[21] = Antitumor activity against human LOX cells expressing B-Raf V600E mutant xenografted in nude mouse assessed as tumor growth inhibition at 30 mg/kg qd for 4 days measured on day 3; format: functional; conditions: read-out: TGI
[22] = target: Macrophage-stimulating protein receptor (Homo sapiens) (UniProt Q04912); test: Inhibition of human Ron assessed as enzyme activity at 1 uM relative to control; design: scale not given: the % may be the effect or the level left
[23] = target: Casein kinase I isoform gamma-3 (Homo sapiens) (UniProt Q9Y6M4); test: Inhibition of human CK1gamma3 assessed as enzyme activity at 1 uM relative to control; design: scale not given: the % may be the effect or the level left
[24] = target: Serine/threonine-protein kinase D2 (Homo sapiens) (UniProt Q9BZL6); test: Inhibition of human PKD2 assessed as enzyme activity at 1 uM relative to control; design: scale not given: the % may be the effect or the level left
[25] = target: Serine/threonine-protein kinase TAO1 (Homo sapiens) (UniProt Q7L7X3); test: Inhibition of human TAO1 assessed as enzyme activity at 1 uM relative to control; design: scale not given: the % may be the effect or the level left
[26] = target: Serine/threonine-protein kinase ULK3 (Homo sapiens) (UniProt Q6PHR2); test: Inhibition of human ULK3 assessed as enzyme activity at 1 uM relative to control; design: scale not given: the % may be the effect or the level left
[27] = target: Inhibitor of nuclear factor kappa-B kinase subunit beta (Homo sapiens) (UniProt O14920); test: Inhibition of human IKKbeta assessed as enzyme activity at 1 uM relative to control; design: scale not given: the % may be the effect or the level left
[28] = target: Serine/threonine-protein kinase STK11 (Homo sapiens) (UniProt Q15831); test: Inhibition of human LKB1 assessed as enzyme activity at 1 uM relative to control; design: scale not given: the % may be the effect or the level left
[29] = target: Serine/threonine-protein kinase PLK2 (Homo sapiens) (UniProt Q9NYY3); test: Inhibition of human Plk2 assessed as enzyme activity at 1 uM relative to control; design: scale not given: the % may be the effect or the level left
[30] = target: Calcium/calmodulin-dependent protein kinase type II subunit gamma (Homo sapiens) (UniProt Q13555); test: Inhibition of human CAMK2g assessed as enzyme activity at 1 uM relative to control; design: scale not given: the % may be the effect or the level left
[31] = target: Receptor-interacting serine/threonine-protein kinase 2 (Homo sapiens) (UniProt O43353); test: Inhibition of human RIPK2 assessed as enzyme activity at 1 uM relative to control; design: scale not given: the % may be the effect or the level left
[32] = target: Ephrin type-A receptor 7 (Homo sapiens) (UniProt Q15375); test: Inhibition of human EphA7 assessed as enzyme activity at 1 uM relative to control; design: scale not given: the % may be the effect or the level left
[33] = Antitumor activity against human LOX cells expressing B-Raf V600E mutant xenografted in nude mouse assessed as tumor growth inhibition at 30 mg/kg qd for 4 days measured on day 8; format: functional; conditions: read-out: TGI
[34] = target: Tyrosine-protein kinase ABL2 (Homo sapiens) (UniProt P42684); test: Inhibition of human Abl2 assessed as enzyme activity at 1 uM relative to control; design: scale not given: the % may be the effect or the level left
[35] = target: Death-associated protein kinase 3 (Homo sapiens) (UniProt O43293); test: Inhibition of human DAPK3 assessed as enzyme activity at 1 uM relative to control; design: scale not given: the % may be the effect or the level left
[36] = target: Mitogen-activated protein kinase 11 (Homo sapiens) (UniProt Q15759); test: Inhibition of human p38beta assessed as enzyme activity at 1 uM relative to control; design: scale not given: the % may be the effect or the level left
[37] = target: Calcium/calmodulin-dependent protein kinase type II subunit beta (Homo sapiens) (UniProt Q13554); test: Inhibition of human CAMK2b assessed as enzyme activity at 1 uM relative to control; design: scale not given: the % may be the effect or the level left

Sequence of Ephrin type-A receptor 5 (Homo sapiens) (P54756 whole entry): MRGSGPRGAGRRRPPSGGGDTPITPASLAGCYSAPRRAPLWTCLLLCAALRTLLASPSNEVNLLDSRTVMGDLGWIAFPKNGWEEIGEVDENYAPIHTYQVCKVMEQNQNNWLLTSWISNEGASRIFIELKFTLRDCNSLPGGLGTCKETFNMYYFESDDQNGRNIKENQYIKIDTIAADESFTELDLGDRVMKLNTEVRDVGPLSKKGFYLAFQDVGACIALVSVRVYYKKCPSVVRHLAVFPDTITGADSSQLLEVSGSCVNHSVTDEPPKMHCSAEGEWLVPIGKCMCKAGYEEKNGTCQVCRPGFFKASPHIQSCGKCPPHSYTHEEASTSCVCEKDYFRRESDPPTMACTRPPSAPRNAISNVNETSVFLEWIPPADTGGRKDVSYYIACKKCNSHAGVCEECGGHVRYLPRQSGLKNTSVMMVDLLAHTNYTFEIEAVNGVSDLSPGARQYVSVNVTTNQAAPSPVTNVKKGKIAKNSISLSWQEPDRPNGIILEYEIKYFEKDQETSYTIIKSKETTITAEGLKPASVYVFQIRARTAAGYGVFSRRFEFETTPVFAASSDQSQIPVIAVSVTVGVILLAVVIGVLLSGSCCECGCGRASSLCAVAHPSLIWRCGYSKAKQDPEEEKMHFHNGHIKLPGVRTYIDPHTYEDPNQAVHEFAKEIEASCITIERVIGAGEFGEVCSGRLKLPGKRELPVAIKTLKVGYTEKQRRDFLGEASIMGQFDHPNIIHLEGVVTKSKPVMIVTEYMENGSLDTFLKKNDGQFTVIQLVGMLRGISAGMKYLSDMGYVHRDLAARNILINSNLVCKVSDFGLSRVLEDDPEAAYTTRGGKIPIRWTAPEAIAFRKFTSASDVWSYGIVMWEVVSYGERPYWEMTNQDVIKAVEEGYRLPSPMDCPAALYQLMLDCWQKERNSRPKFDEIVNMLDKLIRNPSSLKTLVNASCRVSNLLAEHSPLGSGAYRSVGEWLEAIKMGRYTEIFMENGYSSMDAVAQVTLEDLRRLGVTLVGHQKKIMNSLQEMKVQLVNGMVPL
Sequence of Inhibitor of nuclear factor kappa-B kinase subunit beta (Homo sapiens) (O14920 whole entry): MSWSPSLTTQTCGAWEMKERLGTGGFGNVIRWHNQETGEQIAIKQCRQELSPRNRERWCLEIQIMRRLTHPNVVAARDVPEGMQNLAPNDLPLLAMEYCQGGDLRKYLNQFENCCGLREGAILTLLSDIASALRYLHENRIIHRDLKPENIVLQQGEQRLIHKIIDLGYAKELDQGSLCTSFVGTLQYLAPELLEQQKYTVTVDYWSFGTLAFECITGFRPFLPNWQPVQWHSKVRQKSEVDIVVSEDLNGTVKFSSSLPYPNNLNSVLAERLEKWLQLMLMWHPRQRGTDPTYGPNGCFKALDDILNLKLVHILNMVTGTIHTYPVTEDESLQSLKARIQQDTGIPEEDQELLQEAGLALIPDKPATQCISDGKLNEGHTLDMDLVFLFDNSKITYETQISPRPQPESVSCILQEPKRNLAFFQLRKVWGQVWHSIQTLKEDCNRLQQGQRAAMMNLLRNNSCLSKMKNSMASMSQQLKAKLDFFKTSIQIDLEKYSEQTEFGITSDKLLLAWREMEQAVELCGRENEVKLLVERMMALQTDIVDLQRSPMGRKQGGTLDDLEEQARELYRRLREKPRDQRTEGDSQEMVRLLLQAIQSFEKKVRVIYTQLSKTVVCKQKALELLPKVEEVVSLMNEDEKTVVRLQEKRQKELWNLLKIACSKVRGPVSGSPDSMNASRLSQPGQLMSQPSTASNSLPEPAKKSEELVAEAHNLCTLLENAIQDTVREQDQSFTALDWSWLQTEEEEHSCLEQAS
Sequence of Dual specificity mitogen-activated protein kinase kinase 7 (Homo sapiens) (O14733 whole entry): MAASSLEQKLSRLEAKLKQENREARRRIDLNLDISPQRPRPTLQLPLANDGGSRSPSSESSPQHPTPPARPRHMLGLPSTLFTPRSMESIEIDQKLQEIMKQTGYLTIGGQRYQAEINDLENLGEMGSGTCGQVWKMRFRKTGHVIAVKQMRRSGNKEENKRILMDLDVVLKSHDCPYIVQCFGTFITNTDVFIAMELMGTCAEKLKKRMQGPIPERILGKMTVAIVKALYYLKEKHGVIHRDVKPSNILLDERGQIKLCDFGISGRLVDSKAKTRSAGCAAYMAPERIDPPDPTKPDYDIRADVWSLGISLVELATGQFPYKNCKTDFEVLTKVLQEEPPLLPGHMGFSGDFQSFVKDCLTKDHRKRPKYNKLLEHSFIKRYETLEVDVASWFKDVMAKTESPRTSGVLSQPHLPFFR
Sequence of Receptor-interacting serine/threonine-protein kinase 2 (Homo sapiens) (O43353 whole entry): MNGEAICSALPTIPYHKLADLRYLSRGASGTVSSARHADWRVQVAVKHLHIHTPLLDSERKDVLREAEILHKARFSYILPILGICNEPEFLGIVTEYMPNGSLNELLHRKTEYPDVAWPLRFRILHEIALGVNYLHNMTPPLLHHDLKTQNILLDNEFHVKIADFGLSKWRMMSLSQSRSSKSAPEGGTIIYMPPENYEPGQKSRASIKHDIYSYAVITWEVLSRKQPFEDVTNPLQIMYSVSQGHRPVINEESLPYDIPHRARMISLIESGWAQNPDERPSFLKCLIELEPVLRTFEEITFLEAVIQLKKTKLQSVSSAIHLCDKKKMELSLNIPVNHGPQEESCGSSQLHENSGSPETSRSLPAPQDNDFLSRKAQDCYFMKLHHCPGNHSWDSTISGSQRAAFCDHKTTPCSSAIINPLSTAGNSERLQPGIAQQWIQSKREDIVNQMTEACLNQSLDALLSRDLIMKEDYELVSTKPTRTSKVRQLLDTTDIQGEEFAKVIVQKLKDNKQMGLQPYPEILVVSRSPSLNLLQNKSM
Sequence of Tyrosine-protein kinase Tec (Homo sapiens) (P42680 whole entry): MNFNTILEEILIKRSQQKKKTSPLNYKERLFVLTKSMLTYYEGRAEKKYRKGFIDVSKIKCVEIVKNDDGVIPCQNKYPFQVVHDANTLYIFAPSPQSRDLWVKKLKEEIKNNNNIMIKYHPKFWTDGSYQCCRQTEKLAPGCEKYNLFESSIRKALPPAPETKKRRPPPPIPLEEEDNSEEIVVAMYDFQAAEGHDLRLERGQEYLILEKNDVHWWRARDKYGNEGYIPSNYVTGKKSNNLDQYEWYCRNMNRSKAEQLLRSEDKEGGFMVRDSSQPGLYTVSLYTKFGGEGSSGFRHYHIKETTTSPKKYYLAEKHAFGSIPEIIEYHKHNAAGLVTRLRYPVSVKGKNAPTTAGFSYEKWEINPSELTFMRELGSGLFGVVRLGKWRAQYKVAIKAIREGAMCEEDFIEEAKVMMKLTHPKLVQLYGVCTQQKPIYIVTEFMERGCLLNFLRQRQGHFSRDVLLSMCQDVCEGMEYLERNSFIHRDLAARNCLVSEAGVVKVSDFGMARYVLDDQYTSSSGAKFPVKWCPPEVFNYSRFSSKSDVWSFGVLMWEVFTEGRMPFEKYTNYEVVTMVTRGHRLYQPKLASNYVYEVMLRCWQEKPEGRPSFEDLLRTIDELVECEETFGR
Sequence of Casein kinase I isoform gamma-3 (Homo sapiens) (Q9Y6M4 whole entry, looked up, canonical isoform): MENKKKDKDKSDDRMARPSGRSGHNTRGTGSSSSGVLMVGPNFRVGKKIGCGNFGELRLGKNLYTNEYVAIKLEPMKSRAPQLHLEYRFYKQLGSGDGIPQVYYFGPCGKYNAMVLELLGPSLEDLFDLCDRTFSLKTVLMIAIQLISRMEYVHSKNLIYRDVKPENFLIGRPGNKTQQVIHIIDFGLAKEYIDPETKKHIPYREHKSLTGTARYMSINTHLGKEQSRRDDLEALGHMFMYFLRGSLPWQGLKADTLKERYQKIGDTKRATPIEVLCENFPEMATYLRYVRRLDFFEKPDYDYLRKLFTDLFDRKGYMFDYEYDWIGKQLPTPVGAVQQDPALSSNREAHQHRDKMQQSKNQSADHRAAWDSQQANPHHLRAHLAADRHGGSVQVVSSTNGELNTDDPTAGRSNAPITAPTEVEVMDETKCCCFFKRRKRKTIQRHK
Sequence of Serine/threonine-protein kinase ULK3 (Homo sapiens) (Q6PHR2 whole entry): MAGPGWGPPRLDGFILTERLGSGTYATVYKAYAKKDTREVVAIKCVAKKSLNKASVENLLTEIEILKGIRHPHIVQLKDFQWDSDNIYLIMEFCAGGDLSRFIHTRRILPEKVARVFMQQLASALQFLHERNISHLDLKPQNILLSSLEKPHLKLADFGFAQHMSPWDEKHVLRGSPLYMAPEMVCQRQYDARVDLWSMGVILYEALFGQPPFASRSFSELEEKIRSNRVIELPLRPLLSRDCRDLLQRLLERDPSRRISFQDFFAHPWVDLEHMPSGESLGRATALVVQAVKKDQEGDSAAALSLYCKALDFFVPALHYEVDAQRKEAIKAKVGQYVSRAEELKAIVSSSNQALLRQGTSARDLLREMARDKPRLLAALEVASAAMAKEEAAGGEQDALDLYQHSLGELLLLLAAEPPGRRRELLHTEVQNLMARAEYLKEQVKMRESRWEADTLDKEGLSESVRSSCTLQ
Sequence of Death-associated protein kinase 3 (Homo sapiens) (O43293 whole entry, looked up): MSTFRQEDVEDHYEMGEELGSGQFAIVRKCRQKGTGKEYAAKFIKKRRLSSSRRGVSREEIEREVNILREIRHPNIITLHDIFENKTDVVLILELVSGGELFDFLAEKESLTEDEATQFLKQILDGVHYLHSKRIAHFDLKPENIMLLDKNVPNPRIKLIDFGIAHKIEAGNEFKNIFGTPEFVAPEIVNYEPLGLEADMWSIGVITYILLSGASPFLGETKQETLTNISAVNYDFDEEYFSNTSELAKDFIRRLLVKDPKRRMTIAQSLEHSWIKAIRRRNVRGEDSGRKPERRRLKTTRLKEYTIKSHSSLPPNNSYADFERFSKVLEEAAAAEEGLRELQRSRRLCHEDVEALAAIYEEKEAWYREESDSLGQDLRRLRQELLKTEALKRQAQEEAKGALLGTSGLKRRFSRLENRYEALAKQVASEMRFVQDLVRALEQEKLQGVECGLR

## CCCS(=O)(=O)Nc1cccc(Nc2ccc3ncn(C)c(=O)c3c2)c1C#N
[1]
  clearance: 1.6 mL/min/kg
[2]
  Activity: 103%
[3]
  Activity: 116%
[4]
  Activity: 95%
[5]
  Activity: 127%
[6]
  Activity: 154%
[7]
  Activity: 102%
[8]
  Activity: 104%
[9]
  Activity: 99.5%
[10]
  Activity: 106%
[11]
  Activity: 102%
[12]
  Activity: 110%
[13]
  Activity: 121%
[14]
  Activity: 108%
[15]
  Activity: 93%
[16]
  Activity: 101%
[17]
  Activity: 114%
[18]
  Activity: 99%
[19]
  Activity: 112%
[20]
  Activity: 97%
[21]
  inhibition in vivo at 30 mg/kg: 65%
[22]
  Activity: 110%
[23]
  Activity: 91.5%
[24]
  Activity: 95.5%
[25]
  Activity: 88.5%
[26]
  Activity: 92%
[27]
  Activity: 104%
[28]
  Activity: 90.5%
[29]
  Activity: 102%
[30]
  Activity: 104%
[31]
  Activity: 98%
[32]
  Activity: 99%
[33]
  inhibition in vivo at 30 mg/kg: 99%
[34]
  Activity: 108%
[35]
  Activity: 110%
[36]
  Activity: 110%
[37]
  Activity: 107%
